According to ChEMBL document CHEMBL3044880, “Synthesis, NMR spectral studies and antimicrobial evaluation of some 2-(benzothiazol-2-yl)-1-(alkyl-2r,6c-diarylpiperidin-4-ylidine)hydrazine derivatives” (2013):
Converted amounts (≈) assume the structure as drawn. The source made the active and inactive calls. The calls are words filed in the database; no cut-off is given here.

Key:
Format in all cases: functional
Pseudomonas aeruginosa = assay: Antimicrobial activity against Pseudomonas aeruginosa MTCC 741 assessed as growth inhibition after 24 hr by two-fold serial dilution method; details: MTCC 741, 24 h
Aspergillus niger = assay: Antimicrobial activity against Aspergillus niger assessed as growth inhibition after 72-96 hr by two-fold serial dilution method
Aspergillus flavus = assay: Antimicrobial activity against Aspergillus flavus assessed as growth inhibition after 72-96 hr by two-fold serial dilution method
Escherichia coli = assay: Antimicrobial activity against Escherichia coli MTCC 443 assessed as growth inhibition after 24 hr by two-fold serial dilution method; details: MTCC 443, 24 h
Staphylococcus aureus = assay: Antimicrobial activity against Staphylococcus aureus MTCC 96 assessed as growth inhibition after 24 hr by two-fold serial dilution method
Candida albicans = assay: Antimicrobial activity against Candida albicans assessed as growth inhibition by two-fold serial dilution method
Bacillus subtilis = assay: Antimicrobial activity against Bacillus subtilis MTCC 121 assessed as growth inhibition after 24 hr by two-fold serial dilution method; details: MTCC 121, 24 h
Klebsiella pneumoniae = assay: Antimicrobial activity against Klebsiella pneumoniae MTCC 2272 assessed as growth inhibition after 24 hr by two-fold serial dilution method; details: MTCC 2272, 24 h
Fusarium oxysporum = assay: Antimicrobial activity against Fusarium oxysporum assessed as growth inhibition after 72-96 hr by two-fold serial dilution method
Cryptococcus neoformans = assay: Antimicrobial activity against Cryptococcus neoformans assessed as growth inhibition after 72-96 hr by two-fold serial dilution method

Row | MIC (Pseudomonas aeruginosa) [µg/mL] | MIC (Aspergillus niger) [µg/mL] | MIC (Aspergillus flavus) [µg/mL] | MIC (Escherichia coli) [µg/mL] | MIC (Staphylococcus aureus) | MIC (Candida albicans) [µg/mL] | MIC (Bacillus subtilis) [µg/mL] | MIC (Klebsiella pneumoniae) [µg/mL] | MIC (Fusarium oxysporum) | MIC (Cryptococcus neoformans) | MIC (Staphylococcus aureus; MTCC 96, 24 h) [µg/mL] | SMILES
1 | 200 (≈ 502 µM) | 200 (≈ 502 µM) | 200 (≈ 502 µM) | 200 (≈ 502 µM) | inactive | 100 (≈ 251 µM) | 100 (≈ 251 µM) | 200 (≈ 502 µM) | 200 µg/mL (≈ 502 µM) | – | – | c1ccc(C2CC(=NNc3nc4ccccc4s3)CC(c3ccccc3)N2)cc1 (stereo not drawn)
2 | 200 (≈ 485 µM) | 100 (≈ 242 µM) | – | 25 (≈ 60.6 µM) | – | 100 (≈ 242 µM) | 100 (≈ 242 µM) | 100 (≈ 242 µM) | 200 µg/mL (≈ 485 µM) | 200 µg/mL (≈ 485 µM) | 200 (≈ 485 µM) | CC1/C(=N/Nc2nc3ccccc3s2)CC(c2ccccc2)NC1c1ccccc1 (stereo not drawn)
3 | 100 (≈ 208 µM) | 50 (≈ 104 µM) | 200 (≈ 415 µM) | 200 (≈ 415 µM) | inactive | 200 (≈ 415 µM) | 100 (≈ 208 µM) | 100 (≈ 208 µM) | 100 µg/mL (≈ 208 µM) | 100 µg/mL (≈ 208 µM) | – | CC1/C(=N/Nc2nc3ccccc3s2)CC(c2ccccc2Cl)NC1c1ccccc1Cl (stereo not drawn)
4 | 100 (≈ 234 µM) | – | 100 (≈ 234 µM) | – | inactive | 200 (≈ 469 µM) | 200 (≈ 469 µM) | 50 (≈ 117 µM) | 100 µg/mL (≈ 234 µM) | 200 µg/mL (≈ 469 µM) | – | CCC1/C(=N/Nc2nc3ccccc3s2)CC(c2ccccc2)NC1c1ccccc1 (stereo not drawn)
5 | 100 (≈ 208 µM) | 100 (≈ 208 µM) | 50 (≈ 104 µM) | 25 (≈ 51.9 µM) | inactive | – | 50 (≈ 104 µM) | 50 (≈ 104 µM) | 200 µg/mL (≈ 415 µM) | 200 µg/mL (≈ 415 µM) | – | CC1/C(=N/Nc2nc3ccccc3s2)CC(c2ccc(Cl)cc2)NC1c1ccc(Cl)cc1 (stereo not drawn)

The remaining lines, values behind:

Row | SMILES | MIC (Pseudomonas aeruginosa) [µg/mL] | MIC (Aspergillus niger) [µg/mL] | MIC (Aspergillus flavus) [µg/mL] | MIC (Escherichia coli) [µg/mL] | MIC (Staphylococcus aureus) | MIC (Candida albicans) [µg/mL] | MIC (Bacillus subtilis) [µg/mL] | MIC (Klebsiella pneumoniae) [µg/mL] | MIC (Fusarium oxysporum) | MIC (Cryptococcus neoformans) | MIC (Staphylococcus aureus; MTCC 96, 24 h) [µg/mL]
6 | C[C@@H]1[C@H](O)[C@@H](C)/C=C/C=C/C=C/C=C/C=C/C=C/C=C/[C@H](O[C@@H]2O[C@H](C)[C@@H](O)[C@H](N)[C@@H]2O)C[C@@H]2O[C@](O)(C[C@@H](O)C[C@@H](O)[C@H](O)CC[C@@H](O)C[C@@H](O)CC(=O)O[C@H]1C)C[C@H](O)[C@H]2C(=O)O [AMPHOTERICIN B] | – | 50 (≈ 54.1 µM) | 50 (≈ 54.1 µM) | – | – | 25 (≈ 27.1 µM) | – | – | 25 µg/mL (≈ 27.1 µM) | 25 µg/mL (≈ 27.1 µM) | –
7 | CN[C@@H]1[C@H](O[C@H]2[C@H](O[C@H]3[C@H](O)[C@@H](O)[C@H](N=C(N)N)[C@@H](O)[C@@H]3N=C(N)N)O[C@@H](C)[C@]2(O)C=O)O[C@@H](CO)[C@H](O)[C@H]1O [STREPTOMYCIN] | 50 (≈ 86 µM) | – | – | 50 (≈ 86 µM) | – | – | 12.5 (≈ 21.5 µM) | 20 (≈ 34.4 µM) | – | – | 50 (≈ 86 µM)
8 | CC1/C(=N/Nc2nc3ccccc3s2)CC(c2ccc(F)cc2)NC1c1ccc(F)cc1 (stereo not drawn) | 200 (≈ 446 µM) | 100 (≈ 223 µM) | 100 (≈ 223 µM) | – | inactive | 100 (≈ 223 µM) | 100 (≈ 223 µM) | 25 (≈ 55.7 µM) | 100 µg/mL (≈ 223 µM) | 200 µg/mL (≈ 446 µM) | –
9 | COc1ccc(C2C/C(=N\Nc3nc4ccccc4s3)C(C)C(c3ccc(OC)cc3)N2)cc1 (stereo not drawn) | – | 200 (≈ 423 µM) | 100 (≈ 212 µM) | 100 (≈ 212 µM) | – | 100 (≈ 212 µM) | 200 (≈ 423 µM) | 50 (≈ 106 µM) | inactive | inactive | 100 (≈ 212 µM)
10 | CC1/C(=N/Nc2nc3ccccc3s2)CC(c2ccc(Br)cc2)NC1c1ccc(Br)cc1 (stereo not drawn) | 200 (≈ 351 µM) | 200 (≈ 351 µM) | 200 (≈ 351 µM) | 200 (≈ 351 µM) | inactive | 200 (≈ 351 µM) | 200 (≈ 351 µM) | 100 (≈ 175 µM) | 50 µg/mL (≈ 87.7 µM) | 100 µg/mL (≈ 175 µM) | –
